{"source": "patent US20260285850A1", "about": "“SUBSTITUTED OXAZOLIDINONES AND IMIDAZOLINONES AS HERBICIDES” (FMC CORPORATION, priority 2023, published 2026)", "type_in_all_cases": "in vivo", "key": {"corn (Zea mays) [1]": {"system": "corn (Zea mays)", "experiment": "Test A postemergence application, visual injury rating 0-100", "how_it_was_run": "(§1)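 Directed preemergence spray onto seeded soil or postemergence spray onto 2-10 cm plants (loam plus sand); compound carried in surfactant-containing non-phytotoxic solvent. Injury rated by eye after 10 d greenhouse growth; 0 = no effect, 100 = complete control.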"}, "[2]": {"system": "blackgrass (Alopecurus myosuroides)", "experiment": "Test A postemergence application, visual injury rating 0-100", "how_it_was_run": "as §1"}, "[3]": {"system": "palmer (palmer amaranth, palmer pigweed, Amaranthus palmeri)", "experiment": "Test A postemergence application, visual injury rating 0-100", "how_it_was_run": "as §1"}, "[4]": {"system": "ryegrass, Italian (italian ryegrass, Lolium multiflorum)", "experiment": "Test A postemergence application, visual injury rating 0-100", "how_it_was_run": "as §1"}, "soybean (Glycine max) [5]": {"system": "soybean (Glycine max)", "experiment": "Test A postemergence application, visual injury rating 0-100", "how_it_was_run": "as §1"}, "[6]": {"system": "wheat (Triticum aestivum)", "experiment": "Test A postemergence application, visual injury rating 0-100", "how_it_was_run": "as §1"}, "[7]": {"system": "green foxtail (Setaria viridis)", "experiment": "Test A postemergence application, visual injury rating 0-100", "how_it_was_run": "as §1"}, "kochia (Bassia scoparia) [8]": {"system": "kochia (Bassia scoparia)", "experiment": "Test A postemergence application, visual injury rating 0-100", "how_it_was_run": "as §1"}, "[9]": {"system": "galium (catchweed bedstraw, Galium aparine)", "experiment": "Test A postemergence application, visual injury rating 0-100", "how_it_was_run": "as §1"}, "[10]": {"system": "barnyardgrass (Echinochloa crus-galli)", "experiment": "Test A postemergence application, visual injury rating 0-100", "how_it_was_run": "as §1"}, "[11]": {"system": "oat, wild (wild oat, Avena fatua)", "experiment": "Test A postemergence application, visual injury rating 0-100", "how_it_was_run": "as §1"}, "[12]": {"system": "horseweed (Erigeron canadensis)", "experiment": "Test A postemergence application, visual injury rating 0-100", "how_it_was_run": "as §1"}, "[13]": {"system": "ragweed (common ragweed, Ambrosia artemisiifolia)", "experiment": "Test A postemergence application, visual injury rating 0-100", "how_it_was_run": "as §1"}, "corn (Zea mays) [14]": {"system": "corn (Zea mays)", "experiment": "Test A preemergence soil spray, visual injury rating 0-100", "conditions": "10 days", "how_it_was_run": "as §1"}, "[15]": {"system": "blackgrass (Alopecurus myosuroides)", "experiment": "Test A preemergence soil spray, visual injury rating 0-100", "conditions": "10 days", "how_it_was_run": "as §1"}, "[16]": {"system": "palmer (palmer amaranth, palmer pigweed, Amaranthus palmeri)", "experiment": "Test A preemergence soil spray, visual injury rating 0-100", "conditions": "10 days", "how_it_was_run": "as §1"}, "[17]": {"system": "ryegrass, Italian (italian ryegrass, Lolium multiflorum)", "experiment": "Test A preemergence soil spray, visual injury rating 0-100", "conditions": "10 days", "how_it_was_run": "as §1"}, "soybean (Glycine max) [18]": {"system": "soybean (Glycine max)", "experiment": "Test A preemergence soil spray, visual injury rating 0-100", "conditions": "10 days", "how_it_was_run": "as §1"}, "[19]": {"system": "wheat (Triticum aestivum)", "experiment": "Test A preemergence soil spray, visual injury rating 0-100", "conditions": "10 days", "how_it_was_run": "as §1"}, "[20]": {"system": "green foxtail (Setaria viridis)", "experiment": "Test A preemergence soil spray, visual injury rating 0-100", "conditions": "10 days", "how_it_was_run": "as §1"}, "kochia (Bassia scoparia) [21]": {"system": "kochia (Bassia scoparia)", "experiment": "Test A preemergence soil spray, visual injury rating 0-100", "conditions": "10 days", "how_it_was_run": "as §1"}, "[22]": {"system": "barnyardgrass (Echinochloa crus-galli)", "experiment": "Test A preemergence soil spray, visual injury rating 0-100", "conditions": "10 days", "how_it_was_run": "as §1"}, "[23]": {"system": "oat, wild (wild oat, Avena fatua)", "experiment": "Test A preemergence soil spray, visual injury rating 0-100", "conditions": "10 days", "how_it_was_run": "as §1"}, "[24]": {"system": "ragweed (common ragweed, Ambrosia artemisiifolia)", "experiment": "Test A preemergence soil spray, visual injury rating 0-100", "conditions": "10 days", "how_it_was_run": "as §1"}, "[25]": {"system": "sedge, umbrella (small-flower umbrella sedge, Cyperus difformis)", "experiment": "Test B flooded paddy test, visual plant response rating 0-100", "conditions": "250 g ai/ha, Flood, applied to paddy water, evaluated after 13 days", "how_it_was_run": "(§2)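 Treatment occurs at the 2-leaf stage by adding compound to floodwater standing 3 cm above the soil, a level kept for the whole test. Plants stay in the greenhouse 13 days before visual comparison with controls.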"}, "[26]": {"system": "barnyardgrass (Echinochloa crusgalli)", "experiment": "Test B flooded paddy test, visual plant response rating 0-100", "conditions": "250 g ai/ha, Flood, applied to paddy water, evaluated after 13 days", "how_it_was_run": "as §2"}, "[27]": {"system": "ducksalad (Heteranthera limosa)", "experiment": "Test B flooded paddy test, visual plant response rating 0-100", "conditions": "250 g ai/ha, Flood, applied to paddy water, evaluated after 13 days", "how_it_was_run": "as §2"}, "rice (Oryza sativa)": {"system": "rice (Oryza sativa)", "experiment": "Test B flooded paddy test, visual plant response rating 0-100", "conditions": "250 g ai/ha, Flood, applied to paddy water, evaluated after 13 days", "how_it_was_run": "as §2"}, "[28]": {"conditions": "62 g ai/ha, postemergence, 10 days, 0 = no effect, 100 = complete control"}, "[29]": {"conditions": "Postemergence, 16 g ai/ha, greenhouse 10 days, 0 no effect, 100 complete control"}, "[30]": {"conditions": "62 g ai/ha, 0 = no effect, 100 = complete control"}}}
{"smiles": "C=CC1(C(=O)NC2C=CC(C(=O)OC)C2)CN(c2cc(F)cc(F)c2)C(=O)O1", "note": "(single isomer, unassigned) [Compound 167]", "values": [{"measurement": "Corn plant response rating (0-100)", "setting": "corn (Zea mays) [1]; [28]", "result": 100}, {"measurement": "Corn plant response rating (0 to 100 scale)", "setting": "corn (Zea mays) [1]; [29]", "result": 100}, {"measurement": "Blackgrass plant response rating (0-100)", "setting": "[2]; [28]", "result": 90}, {"measurement": "Blackgrass plant response rating (0 to 100 scale)", "setting": "[2]; [29]", "result": 80}, {"measurement": "Pigweed, Palmer plant response rating (0-100)", "setting": "[3]; [28]", "result": 90}, {"measurement": "Pigweed, Palmer plant response rating (0 to 100 scale)", "setting": "[3]; [29]", "result": 90}, {"measurement": "Ryegrass, Italian plant response rating (0-100)", "setting": "[4]; [28]", "result": 90}, {"measurement": "Ryegrass, Italian plant response rating (0 to 100 scale)", "setting": "[4]; [29]", "result": 80}, {"measurement": "Soybean plant response rating (0-100)", "setting": "soybean (Glycine max) [5]; [28]", "result": 80}, {"measurement": "Soybean plant response rating (0 to 100 scale)", "setting": "soybean (Glycine max) [5]; [29]", "result": 80}, {"measurement": "Wheat plant response rating (0-100)", "setting": "[6]; [28]", "result": 90}, {"measurement": "Wheat plant response rating (0 to 100 scale)", "setting": "[6]; [29]", "result": 90}, {"measurement": "Foxtail, Green plant response rating (0-100)", "setting": "[7]; [28]", "result": 90}, {"measurement": "Foxtail, Green plant response rating (0 to 100 scale)", "setting": "[7]; [29]", "result": 90}, {"measurement": "Kochia plant response rating (0-100)", "setting": "kochia (Bassia scoparia) [8]; [28]", "result": 80}, {"measurement": "Kochia plant response rating (0 to 100 scale)", "setting": "kochia (Bassia scoparia) [8]; [29]", "result": 80}, {"measurement": "Galium plant response rating (0-100)", "setting": "[9]; [28]", "result": 80}, {"measurement": "Galium plant response rating (0 to 100 scale)", "setting": "[9]; [29]", "result": 80}, {"measurement": "Barnyardgrass plant response rating (0-100)", "setting": "[10]; [28]", "result": 90}, {"measurement": "Barnyardgrass plant response rating (0 to 100 scale)", "setting": "[10]; [29]", "result": 90}, {"measurement": "Oat, Wild plant response rating (0-100)", "setting": "[11]; [28]", "result": 90}, {"measurement": "Oat, Wild plant response rating (0 to 100 scale)", "setting": "[11]; [29]", "result": 90}, {"measurement": "Horseweed plant response rating (0-100)", "setting": "[12]; [28]", "result": 80}, {"measurement": "Horseweed plant response rating (0 to 100 scale)", "setting": "[12]; [29]", "result": 80}, {"measurement": "Ragweed plant response rating (0-100)", "setting": "[13]; [28]", "result": 80}, {"measurement": "Ragweed plant response rating (0 to 100 scale)", "setting": "[13]; [29]", "result": 70}, {"measurement": "Corn plant response rating", "setting": "corn (Zea mays) [14]; 16 g ai/ha, 0 to 100 scale", "result": 40}, {"measurement": "Corn plant response rating (0-100)", "setting": "corn (Zea mays) [14]; [30]", "result": 90}, {"measurement": "Blackgrass plant response rating", "setting": "[15]; 16 g ai/ha, 0 to 100 scale", "result": 30}, {"measurement": "Blackgrass plant response rating (0-100)", "setting": "[15]; [30]", "result": 70}, {"measurement": "Pigweed, Palmer plant response rating", "setting": "[16]; 16 g ai/ha, 0 to 100 scale", "result": 100}, {"measurement": "Pigweed, Palmer plant response rating (0-100)", "setting": "[16]; [30]", "result": 100}, {"measurement": "Ryegrass, Italian plant response rating", "setting": "[17]; 16 g ai/ha, 0 to 100 scale", "result": 80}, {"measurement": "Ryegrass, Italian plant response rating (0-100)", "setting": "[17]; [30]", "result": 90}, {"measurement": "Soybean plant response rating", "setting": "soybean (Glycine max) [18]; 16 g ai/ha, 0 to 100 scale", "result": 70}, {"measurement": "Soybean plant response rating (0-100)", "setting": "soybean (Glycine max) [18]; [30]", "result": 80}, {"measurement": "Wheat plant response rating", "setting": "[19]; 16 g ai/ha, 0 to 100 scale", "result": 70}, {"measurement": "Wheat plant response rating (0-100)", "setting": "[19]; [30]", "result": 90}, {"measurement": "Foxtail, Green plant response rating", "setting": "[20]; 16 g ai/ha, 0 to 100 scale", "result": 90}, {"measurement": "Foxtail, Green plant response rating (0-100)", "setting": "[20]; [30]", "result": 100}, {"measurement": "Kochia plant response rating", "setting": "kochia (Bassia scoparia) [21]; 16 g ai/ha, 0 to 100 scale", "result": 70}, {"measurement": "Kochia plant response rating (0-100)", "setting": "kochia (Bassia scoparia) [21]; [30]", "result": 100}, {"measurement": "Barnyardgrass plant response rating", "setting": "[22]; 16 g ai/ha, 0 to 100 scale", "result": 60}, {"measurement": "Barnyardgrass plant response rating (0-100)", "setting": "[22]; [30]", "result": 100}, {"measurement": "Oat, Wild plant response rating", "setting": "[23]; 16 g ai/ha, 0 to 100 scale", "result": 50}, {"measurement": "Oat, Wild plant response rating (0-100)", "setting": "[23]; [30]", "result": 90}, {"measurement": "Ragweed plant response rating", "setting": "[24]; 16 g ai/ha, 0 to 100 scale", "result": 60}, {"measurement": "Ragweed plant response rating (0-100)", "setting": "[24]; [30]", "result": 90}, {"measurement": "Plant response rating, Sedge, Umbrella (0 to 100 scale, 0 is no effect and 100 is complete control)", "setting": "[25]", "result": 98}, {"measurement": "Plant response rating, Barnyardgrass (0 to 100 scale, 0 is no effect and 100 is complete control)", "setting": "[26]", "result": 90}, {"measurement": "Plant response rating, Ducksalad (0 to 100 scale, 0 is no effect and 100 is complete control)", "setting": "[27]", "result": 98}, {"measurement": "Plant response rating, Rice (0 to 100 scale, 0 is no effect and 100 is complete control)", "setting": "rice (Oryza sativa)", "result": 98}]}
